A value given as a limit tells only on which side of the number the result lay.

One data set concerns Influenza A virus. Briefly: Antiviral activity against influenza A virus H1N1 ATCC VR-1737 infected in MDCK cells after 48 hrs by hemagglutination assay. In kind it is functional, organism-based. Conditions: H1N1 ATCC VR-1737, MDCK.
Compound `O=C(O)/C(O)=C/C(=O)C1(Cc2ccc(Cl)cc2)CCN(Cc2ccccc2)CC1` had an EC50 of 9 µM.

Another data set has as its system MDCK. Briefly: Cytotoxicity against MDCK cells after 48 hrs by cell-titre glo luminescence assay. Conditions: dog. In kind it is cell-based, Canis lupus familiaris.
`O=C(O)/C(O)=C/C(=O)C1(Cc2ccc(Cl)cc2)CCN(Cc2ccccc2)CC1`: the CC50 is 284 µM.

As for `CN(Cc1cc(=O)c(O)cn1-c1ccc(-c2nnn[nH]2)cc1)c1ccc(Cl)cc1`, the CC50 is 280 µM.

The target in a further data set is Polymerase acidic protein (Influenza A virus (A/Puerto Rico/8/1934(H1N1)), UniProt P03433). The data set can be described thus: Inhibition of 8-histidine tagged influenza virus H1N1 N-terminal PA endonuclease expressed in Escherichia coli BL21 cells using single-stranded 5'-FAM fluorophore/3'-TAMRA quencher)-labeled 17-mer ssDNA-oligomer substrate measured over 45 mins by FRET analysis.
Conditions: not given
`Cc1occ(O)c(=O)c1C(=O)NCCc1ccccc1`: half-maximal inhibition (IC50) was put at 11.3 µM.

In turn, `CS(=O)(=O)NCc1cc(=O)c(O)co1` came in with an IC50 of 4.8 µM.

`CN(Cc1cc(=O)c(O)co1)c1ccc(F)cc1` returned an IC50 of 1.8 µM.

Turning to `CN(Cc1cc(=O)c(O)co1)c1cccc(F)c1`, the IC50 turned out to be 3.2 µM.

Turning to `Cc1c(O)c(=O)ccn1C1CCCCC1`, it took 14 µM to reach half-maximal inhibition (IC50).

With `Cc1cc(=O)c(O)cn1C1CCOCC1`, 0.73 µM corresponded to half-maximal inhibition (IC50).

In the case of `CCOC(=O)c1c(C)n(-c2ccc(Oc3ccccc3)cc2)cc(O)c1=O`, the midpoint of inhibition, the IC50, lay at 5.2 µM.

As for `Cc1cc(=O)c(O)cn1-c1ccc(-c2ccccc2)cc1`, the IC50 worked out at 1.3 µM.

In turn, `O=c1cc(CNCc2ccccc2)occ1O` registered an IC50 of 2.7 µM.

`CCOC(=O)c1c(C)n(-c2ccccc2)cc(O)c1=O` showed an IC50 of 5.3 µM.

Take `CN(Cc1cc(=O)c(O)co1)c1ccncc1`: the IC50 is more than 100 µM and the pIC50 is on record as less than 4.

In the case of `Cc1c(O)c(=O)ccn1-c1ccccc1`, the IC50 is 18 µM.

As for `COc1cccc(CNC(=O)c2c(C)occ(O)c2=O)c1`, inhibition was half-maximal at 22.1 µM (IC50).

The values are drawn from ChEMBL document CHEMBL4477214.
